Data: PMC7288168, “Synthesis and Cytotoxic Activity of Chiral Sulfonamides Based on the 2-Azabicycloalkane Skeleton” (Molecules, 2020)

What was measured:
D283 cells = test: Neutral red cell viability assay, D283; format: cell-based, human; conditions: for reduction of cell viability, D283: 50 µM, 24 h, first screening; for IC50: Homo sapiens, D283, 24 h treatment, read-out: LD50 D283 (MB)
Protocol: (§1) The human hepatocellular carcinoma (HCC) cell line HUH7 was purchased from ATCC (LGC standards GmbH, Wesel, Germany). The Austrian human HCC cell line AKH12 has been well characterized and was kindly provided by Prof. Bettina Grasl-Kraupp. HUH7 cells were cultured in Dulbecco’s modified Eagle’s medium (Thermo Fisher Scientific, Waltham, MA, USA) containing 10% heat-inactivated fetal bovine serum (FBS) (Sigma-Aldrich, St. Louis, MO, USA), 1% penicillin-streptomycin (10,000 U/mL) (Thermo Fisher Scientific, Waltham, MA, USA), and 1% minimum essential medium nonessential amino acids (100x) (Thermo Fisher Scientific, Waltham, MA, USA). AKH12 cells were cultured in RPMI1640 medium (Sigma-Aldrich, St. Louis, MO, USA) containing 10% heat-inactivated FBS. DAOY and D283Med (short D283) medulloblastoma (MB) cells were purchased from ATCC (LGC standards GmbH, Wesel, Germany). D425Med (short D425) and UW228-2 were provided by Thomas Ströbel from the Institute of Neurology Medical University of Vienna. The cells were cultured in Dulbecco’s modified Eagle’s medium (Sigma-Aldrich, St. Louis, MO, USA) containing 10% FBS (Sigma-Aldrich, St. Louis, MO, USA), 2% L-Glutamine (Sigma-Aldrich, St. Louis, MO, USA), and 0.2% Normocin (Sigma-Aldrich, St. Louis, MO, USA). U-251 MG (short U251) glioblastoma (GBM) cell line was purchased from Sigma-Aldrich and cultured in Dulbecco’s modified Eagle’s medium (Sigma-Aldrich, St. Louis, MO, USA) containing 10% FBS (Sigma-Aldrich, St. Louis, MO, USA), 2% L-Glutamine (Sigma-Aldrich, St. Louis, MO, USA), and 0.2% Normocin (Sigma-Aldrich, St. Louis, Missouri, USA). Human umbilical vein endothelial cells (HUVECs) were provided by Brigitte Winter from the Department of Surgery Medical University of Vienna and were grown in endothelial cell growth medium-2 BulletKitTM (Lonza, Basel, Switzerland) under standard tissue culture conditions. All cells were incubated at 37 °C in a 5% CO2 atmosphere and regularly checked for mycoplasma contamination.
(§2) Cell viability was determined using a neutral red assay, as previously described. The cells were placed in 24-well plates and grown to reach 70–80% confluency prior to treatment. After treatment for 24 h, cells were incubated with neutral red at a concentration of 50 µg/mL in serum-free medium for 2 h at 37 °C. Cells were then washed 2x and incubated with 1% acetic acid in 70% ethanol. The dye concentration was measured photometrically at 562 nm. The percentage of survival was calculated considering DMSO-treated (indicated as 0 µM concentration) cells as 100% control.
(§3) LD50 was defined as the amount of a toxic agent required to eliminate 50% of the cell population. The LD50 was calculated in each experiment from the respective dose–response curve. All experiments were performed in triplicate wells.

UW228-2 cells = test: Neutral red cell viability assay, UW228-2; format: cell-based, human; conditions: for reduction of cell viability, UW228-2: 50 µM, 24 h, first screening; for IC50: Homo sapiens, UW228-2, 24 h treatment, neutral red, read-out: LD50 UW228-2 (MB)
Protocol: as §1, §2, §3

U251 cells = test: Neutral red cell viability assay, U251; format: cell-based, human; conditions: for decrease of cell viability, U251: 50 µM, 24 h, first screening; for IC50: Homo sapiens, U-251, 24 h treatment, neutral red, read-out: LD50 U251 (GBM)
Protocol: as §1, §2, §3

DAOY cells = test: Neutral red cell viability assay, DAOY; format: cell-based, human; conditions: for reduction of cell viability, DAOY: 50 µM, 24 h, first screening; for IC50: Homo sapiens, Daoy, 24 h treatment, neutral red, read-out: LD50 DAOY (MB)
Protocol: as §1, §2, §3

D425 cells = test: Cell viability assay (suspension cell line), MTT/CellTiter Blue, D425; format: cell-based, human; conditions: for reduction of cell viability, D425: 50 µM, 24 h, first screening; for IC50: Homo sapiens, 24 h treatment, suspension cell assay, read-out: LD50 D425 (MB); for HUVEC/D425 LD50 Fold Change: ratio of LD50 HUVEC to LD50 D425; for D425 cell viability as compared to HUVEC cells: dose-response 24 h, Student's t-test, p ≤0.05 / p ≤0.01
Protocol: as §1, §3
(§4) One day before treatment, 2 × 10^4 of D425Med or HUVEC cells were seeded into 24-well plates and incubated at 37 °C in a humidified atmosphere containing 5% CO2.The cells were treated with different compounds for 24 h. A […] assay using the CellTiter Blue reagent (Promega, Fitchburg, Wisconsin, USA) was performed according to the manufacturer’s protocol. Experiments were performed in triplicate and repeated three times. The percentage of survival was calculated as the ratio using DMSO-treated (indicated as 0 µM concentration) cells as 100% control.

HUVEC cells [1] = test: Neutral red cell viability assay, HUVEC (Table 1); format: cell-based; conditions: Table 1, nonmalignant primary cells, 24 h
Protocol: as §1, §2, §3

HUH7 cells = test: Neutral red cell viability assay, HUH7; format: cell-based, human; conditions: for IC50: Homo sapiens, Huh-7, 24 h treatment, neutral red, read-out: LD50 HUH7 (HCC)
Protocol: as §1, §2, §3

HUVEC cells [2] = test: Cell viability assay MTT/CellTiter Blue, HUVEC (Table 2); format: cell-based; conditions: Table 2, nonmalignant primary cells, 24 h, assay as for D425
Protocol: as §1, §3, §4

AKH12 cells = test: Neutral red cell viability assay, AKH12; format: cell-based, human; conditions: for reduction of cell viability, AKH12: 50 µM, 24 h, first screening; for IC50: Homo sapiens, 24 h treatment, neutral red, read-out: LD50 AKH12 (HCC)
Protocol: as §1, §2, §3

| Structure (SMILES) | reduction of cell viability, D283 (D283 cells) | IC50 (D283 cells) [µM] | reduction of cell viability, UW228-2 (UW228-2 cells) | IC50 (UW228-2 cells) [µM] | decrease of cell viability, U251 (U251 cells) | IC50 (U251 cells) [µM] | reduction of cell viability, DAOY (DAOY cells) | IC50 (DAOY cells) [µM] | reduction of cell viability, D425 (D425 cells) | IC50 (D425 cells) [µM] | HUVEC/D425 LD50 Fold Change (D425 cells) | LD50 HUVEC (HUVEC cells [1]) [µM] | IC50 (HUH7 cells) [µM] | LD50 HUVEC (HUVEC cells [2]) [µM] | reduction of cell viability, AKH12 (AKH12 cells) | IC50 (AKH12 cells) [µM] | D425 cell viability as compared to HUVEC cells (D425 cells) | reduction of cell viability, HUH7 (HUH7 cells; 50 µM, 24 h, first screening) |
| --- | --- | --- | --- | --- | --- | --- | --- | --- | --- | --- | --- | --- | --- | --- | --- | --- | --- | --- |
| CC(c1ccccc1)N1C2CCC(C2)C1CNS(=O)(=O)c1ccc(C(F)(F)F)cc1 [Compound 10f, 4-Trifluoromethyl-N-((2-((S)-1-phenylethyl)-(1S,3R,4R)-2-azabicyclo[2.2.1]heptane-3-yl)benzenesulfonamide] | reduced cell viability | 18.8 ± 1.22 | reduced cell viability | 28 ± 2.09 | more than 50% | 32.7 ± 1.32 | reduced cell viability | 15.8 ± 1.09 | reduced cell viability | 20.2 ± 0.79 | 1.14 | 17.26 ± 2.33 | 24.6 ± 1.54 | 23.15 ± 2.21 | reduced cell viability below LD50 | 24.7 ± 1.98 |  |  |
| COc1ccc(-c2ccc(S(=O)(=O)NCC3C4CCC(C4)N3C(C)c3ccccc3)cc2)cc1 [Compound 10e, 4-(4-Metoxyphenyl)-N-((2-((S)-1-phenylethyl)-(1S,3R,4R)-2-azabicyclo[2.2.1]heptane-3-yl)benzenesulfonamide] | reduced cell viability | 15.6 ± 0.59 | reduced cell viability | 26.7 ± 1.52 | more than 50% | 16 ± 2 | reduced cell viability | 15.5 ± 1.62 | reduced cell viability | 11 ± 0.47 | 1.05 | 9.58 ± 1.88 | 16.3 ± 0.69 | 11.54 ± 2.8 | reduced cell viability below LD50 | 32 ± 2.21 | significantly reduced D425 cell viability as compared to HUVEC cells |  |
| COc1ccc(-c2ccc(S(=O)(=O)NC3CN(C(C)c4ccccc4)C4CCC3C4)cc2)cc1 [Compound 11e, 4-(4-Methoxyphenyl)-N-((2-((S)-1-phenylethyl)-(1S,4S,5R)-2-azabicyclo[3.2.1]octan-4-yl)benzenesulfonamide] | reduced cell viability | 25.9 ± 1.9 | reduced cell viability | 23.5 ± 1.56 | more than 50% | 23.7 ± 1.69 | reduced cell viability | 24 ± 1.49 | reduced cell viability | 17.8 ± 1.04 | 2.04 | 17.58 ± 2.94 | 30.2 ± 2.21 | 36.38 ± 4.37 | reduced cell viability below LD50 | 28 ± 1.39 | significantly reduced D425 cell viability as compared to HUVEC cells |  |
| CC(c1ccccc1)N1C2CCC(C2)C1CN(CC1C2CCC(C2)N1C(C)c1ccccc1)S(=O)(=O)c1ccc(-c2ccccc2)cc1 [Compound 13a, N-Bis-(((1S,3R,4R)-2-((S)-1-phenylethyl)-2-azabicyclo[2.2.1]heptan-3-yl)methyl)-[1,1'-biphenyl]-4-sulfonamide] | reduced cell viability | 38.4 ± 1.11 | reduced cell viability | 25.9 ± 1.98 | more than 50% | 27.6 ± 1.04 | reduced cell viability | 19.2 ± 1.37 | reduced cell viability | 30.5 ± 1.86 | 0.52 | 12.13 ± 0.26 | 13.9 ± 0.49 | 16 ± 0.79 | reduced cell viability below LD50 | 8 ± 0.28 |  |  |
| CC(c1ccccc1)N1CC(NS(=O)(=O)c2ccc(-c3ccccc3)cc2)C2CCC1C2 [Compound 11a, 4-Phenyl-N-((2-((S)-1-phenylethyl)-(1S,4S,5R)-2-azabicyclo[3.2.1]octan-4-yl)benzenesulfonamide] | reduced cell viability | 20 ± 2.02 | reduced cell viability | 16 ± 1.03 | more than 50% | 18.8 ± 2.11 | reduced cell viability | 18.7 ± 1.88 | reduced cell viability | 21.4 ± 0.89 | 1.01 | 13.35 ± 0.25 | 22.5 ± 1.21 | 21.71 ± 1.99 | reduced cell viability below LD50 | 28.8 ± 1.53 |  |  |
| CC(c1ccccc1)N1CC(NS(=O)(=O)c2ccc(C(F)(F)F)cc2)C2CCC1C2 [Compound 11f, 4-Trifluoromethyl-N-((2-((S)-1-phenylethyl)-(1S,4S,5R)-2-azabicyclo[3.2.1]octan-4-yl)benzenesulfonamide] | reduced cell viability | 29.9 ± 1.5 | reduced cell viability | 31.4 ± 2.12 | more than 50% | 31.5 ± 2 | reduced cell viability | 17.3 ± 0.99 | reduced cell viability | 32 ± 1.37 | 0.98 | 22.28 ± 1.45 | 42.7 ± 1.98 | 31.52 ± 1.16 |  |  |  | more than 50% |
| Cc1ccc(-c2ccc(S(=O)(=O)NCC3C4CCC(C4)N3C(C)c3ccccc3)cc2)cc1 [Compound 10b, 4-(4-Tolyl)-N-((2-((S)-1-phenylethyl)-(1S,3R,4R)-2-azabicyclo[2.2.1]heptane-3-yl)benzenesulfonamide] |  | 31.3 ± 1.32 |  |  | more than 50% | 20.4 ± 1.58 |  |  |  | 16.4 ± 2.34 | 1.76 | 12.88 ± 2.13 | 21.3 ± 1.23 | 28.9 ± 2.97 | reduced cell viability below LD50 | 23.7 ± 1.27 | significantly reduced D425 cell viability as compared to HUVEC cells |  |
